Measurements from publication PMC7956620 (Molecules, 2021).

Target: T1, 5-HT3A receptor S136A mutant (Homo sapiens, UniProt P46098, S131A)
T1 construct: host or cells: Xenopus laevis oocytes injected with in vitro transcribed mRNA
T1 sequence (P46098 24-478 S131A): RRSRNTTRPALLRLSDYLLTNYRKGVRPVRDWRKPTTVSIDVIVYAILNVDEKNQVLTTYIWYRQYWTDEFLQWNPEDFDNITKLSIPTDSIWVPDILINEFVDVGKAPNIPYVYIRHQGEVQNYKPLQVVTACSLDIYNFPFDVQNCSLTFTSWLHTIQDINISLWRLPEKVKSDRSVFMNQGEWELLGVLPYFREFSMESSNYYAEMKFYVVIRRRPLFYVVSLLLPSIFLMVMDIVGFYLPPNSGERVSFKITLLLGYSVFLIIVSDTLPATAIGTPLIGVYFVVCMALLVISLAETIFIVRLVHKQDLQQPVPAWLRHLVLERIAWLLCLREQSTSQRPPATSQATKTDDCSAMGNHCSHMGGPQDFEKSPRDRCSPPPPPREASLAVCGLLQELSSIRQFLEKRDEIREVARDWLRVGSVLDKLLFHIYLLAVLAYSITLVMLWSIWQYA
Test: two-electrode voltage clamp, S136A mutant receptor in Xenopus oocytes
Format: cell-based
Conditions: 100 µM chanoclavine, read-out: Inhibition Percentage (%)
Method: The site-directed mutation of one or two amino acids was performed using sense and antisense primers and Pfu polymerase (QuickChange Site-Directed Mutagenesis Kit; Agilent, Santa Clara, CA, USA) and amplified by polymerase chain reaction (PCR) to increase the target domain. After removing the existing methylated cDNA using Dpn Ⅰ, the PCR products were transformed into Escherichia coli strain DH5α. The cDNA of the 5-HT3A receptor was linearized by Xho Ⅰ at the end of the multi-cloning site, followed by transcription using T7 polymerase and a transcription kit (mMESSAGE mMACHINE T7 Transcription Kit; Thermo Fisher Scientific, Waltham, MA, USA). […]
To isolate oocytes, female Xenopus laevis were put into a container filled with ice and left for about one hour. […] When the Xenopus oocytes were ready for injection, 50 ng of mRNA was injected with a nanoliter injector (Drummond Scientific, Vernon Hills, IL, USA). […]
The oocytes in which mRNA was expressed during the incubation period allowed for the estimation of channel or receptor properties for observing drug and ligand potential interactions using a two-electrode voltage clamp (OC-725C; Warner Instruments, Hamden, CT, USA) and Digidata (1322A; Molecular Devices, Sunnyvale, CA, USA). […] The voltage and current electrodes were filled with 3 M KCl (0.3–0.7 MΩ) and analyzed at a −80 mV holding potential. […]

CN[C@@H]1Cc2c[nH]c3cccc(c23)[C@H]1/C=C(\C)CO [chanoclavine]
inhibition at 100 µM: 68.4 ± 6.1%
